Reference: patent US9951064B2, “Azaindazole compounds as inhibitors of T790M containing EGFR mutants” (Genentech, Inc., priority 2013, dated 2018)
Where two headings read alike, the source gives them in different places.

Key:
[1] = tested on: H1975 (EGFR T790M/L858R) cell proliferation; assay: H1975 proliferation assay (Cell Titer-Glo); assay type: cell-based; conditions: NCI-H1975 cells, 72 hour incubation, read-out: H1975 antiproliferative EC50
Method: H1975 Proliferation Assays
All cell culture reagents were purchased from Invitrogen/Gibco. Cells are cultured at 37° C. at 5% CO2 and split as recommended by ATCC.

EGFR del746-750 T790M = target: T1, EGFR del746-750 T790M (Homo sapiens, UniProt P00533, DEL746-750/T790M); assay: EGFR del746-750 T790M biochemical assay (Caliper mobility shift); conditions: 5 μM ATP; apparent Ki (Morrison fit) converted by Cheng-Prusoff, Km of ATP 2.1 μM; read-out: EGFR(T790M/d746-750) Ki
T1 construct: purchased Carna Biosciences 08-528
T1 sequence (P00533 with tags, fused parts or gaps DEL746-750/T790M limits assumed): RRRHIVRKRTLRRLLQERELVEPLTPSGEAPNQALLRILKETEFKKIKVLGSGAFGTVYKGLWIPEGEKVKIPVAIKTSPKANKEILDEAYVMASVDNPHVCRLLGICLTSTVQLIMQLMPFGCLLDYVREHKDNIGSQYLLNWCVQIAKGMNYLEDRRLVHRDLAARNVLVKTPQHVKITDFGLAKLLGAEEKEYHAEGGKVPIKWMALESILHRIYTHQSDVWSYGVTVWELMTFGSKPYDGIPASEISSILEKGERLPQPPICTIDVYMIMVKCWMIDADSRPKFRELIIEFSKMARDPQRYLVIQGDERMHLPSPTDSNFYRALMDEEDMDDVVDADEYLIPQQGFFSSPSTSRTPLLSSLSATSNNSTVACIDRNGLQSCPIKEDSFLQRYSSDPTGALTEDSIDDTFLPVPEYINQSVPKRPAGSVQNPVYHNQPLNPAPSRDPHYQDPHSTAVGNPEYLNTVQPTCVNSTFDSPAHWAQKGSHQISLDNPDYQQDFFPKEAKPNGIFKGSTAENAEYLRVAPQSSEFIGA
Outline: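 Caliper mobility-shift read-out, with product electrophoretically resolved from substrate and measured. Reactions were quenched with 80 mM EDTA after 30 min at 22 °C.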

EGFR T790M L858R = target: T2, EGFR T790M L858R (Homo sapiens, UniProt P00533, L858R/T790M); assay: EGFR T790M L858R biochemical assay (Caliper mobility shift); conditions: 5 μM ATP; apparent Ki (Morrison fit) converted by Cheng-Prusoff, Km of ATP 1.3 μM
T2 construct: purchased Life Technologies PV4879
T2 sequence (P00533 25-1210 T790M/L858R): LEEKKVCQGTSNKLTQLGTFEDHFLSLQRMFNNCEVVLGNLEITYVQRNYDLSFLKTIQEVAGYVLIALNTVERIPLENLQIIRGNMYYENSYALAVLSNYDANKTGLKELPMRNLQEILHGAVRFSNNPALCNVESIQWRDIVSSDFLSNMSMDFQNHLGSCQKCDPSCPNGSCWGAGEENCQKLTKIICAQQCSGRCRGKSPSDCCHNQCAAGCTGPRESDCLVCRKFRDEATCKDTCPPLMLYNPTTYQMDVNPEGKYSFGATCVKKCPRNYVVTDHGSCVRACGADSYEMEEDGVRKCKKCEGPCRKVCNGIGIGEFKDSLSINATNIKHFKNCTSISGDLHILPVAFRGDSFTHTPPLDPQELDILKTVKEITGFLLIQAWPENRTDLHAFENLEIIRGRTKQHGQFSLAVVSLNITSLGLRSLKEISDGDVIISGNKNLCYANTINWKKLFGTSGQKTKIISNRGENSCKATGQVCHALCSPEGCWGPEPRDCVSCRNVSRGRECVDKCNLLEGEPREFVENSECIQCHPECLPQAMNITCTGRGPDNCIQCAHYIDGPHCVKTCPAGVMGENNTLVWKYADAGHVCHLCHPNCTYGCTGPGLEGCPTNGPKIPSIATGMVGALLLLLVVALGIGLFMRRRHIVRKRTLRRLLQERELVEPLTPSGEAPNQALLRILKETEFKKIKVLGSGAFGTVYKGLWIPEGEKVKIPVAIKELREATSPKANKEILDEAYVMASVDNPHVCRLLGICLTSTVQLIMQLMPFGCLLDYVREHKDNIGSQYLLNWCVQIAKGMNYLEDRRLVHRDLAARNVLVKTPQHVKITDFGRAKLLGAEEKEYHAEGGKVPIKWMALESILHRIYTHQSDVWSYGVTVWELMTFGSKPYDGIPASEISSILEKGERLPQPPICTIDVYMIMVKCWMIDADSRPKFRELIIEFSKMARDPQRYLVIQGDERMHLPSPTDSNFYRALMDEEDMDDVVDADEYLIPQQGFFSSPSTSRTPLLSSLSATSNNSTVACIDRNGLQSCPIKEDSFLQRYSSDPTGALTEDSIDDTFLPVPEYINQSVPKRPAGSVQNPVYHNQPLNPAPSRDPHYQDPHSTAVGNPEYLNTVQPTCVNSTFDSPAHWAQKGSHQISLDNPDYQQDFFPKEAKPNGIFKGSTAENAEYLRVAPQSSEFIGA
Outline: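 Caliper mobility-shift read-out, electrophoretic separation of substrate from product, after a 30-minute kinase reaction at 22 °C. EDTA at 80 mM terminates each reaction.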

[2] = target: T3, phosphor-EGFR in H1975(L585R/T790M) mutant EGFR expressing cells (Homo sapiens, UniProt P00533, L858R/T790M); assay: H1975 pEGFR MSD cellular assay; assay type: cell-based; conditions: NCI-H1975 cells, serum starved, 1 hour compound incubation, pEGFR Tyr1068 MSD; read-out: HI975 pEGFR EC50
T3 construct: host or cells: NCI-H1975
T3 sequence (P00533 25-1210 T790M/L858R): as above
Outline: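 Phospho-EGFR read by MSD electrochemiluminescence: capture with anti-pEGFR antibody (overnight, 4° C), detection with SULFO-TAG anti-total EGFR (1 hour, room temperature). Before lysis, H1975 cells starved of serum overnight got compound for 1 hour at 37° C, 0.5% DMSO final. EC50 via four-parameter logistic regression of percent inhibition.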

| Compound | EC50 ([1]; Homo sapiens, NCI-H1975, 72 h) | Ki (EGFR del746-750 T790M) | Ki (EGFR T790M L858R) | EC50 [2] | EC50 [1] |
| --- | --- | --- | --- | --- | --- |
| CC(C)n1nc(N2CCNC(=O)C2)c2cnc(Nc3ccnc(-c4cnn(S(=O)(=O)C5CC5)c4)n3)cc21 [Example 59, 4-(6-(2-(1-(cyclopropylsulfonyl)-1H-pyrazol-4-yl)pyrimidin-4-ylamino)-1-isopropyl-1H-pyrazolo[4,3-c]pyridin-3-yl)piperazin-2-one] | 738 nM | 0.5 nM | < 0.6 nM | 92.1 nM |  |
| CC(C)n1nc(N2CCCC2=O)c2cnc(Nc3ccnc(N4CC[C@H](O)[C@H](F)C4)n3)cc21 (racemic) [Example 133, (±)-1-(6-(2-(cis-3-Fluoro-4-hydroxypiperidin-1-yl)pyrimidin-4-ylamino)-1-isopropyl-1H-pyrazolo[4,3-c]pyridin-3-yl)pyrrolidin-2-one] | 332 nM | 4.3 nM | 1.7 nM | 150 nM |  |
| CC(C)n1nc(N2CCC3(COC3)C2)c2cnc(Nc3ccnc(-c4cnn(S(=O)(=O)C5CC5)c4)n3)cc21 [Example 120, N-(2-(1-(Cyclopropylsulfonyl)-1H-pyrazol-4-yl)pyrimidin-4-yl)-1-isopropyl-3-(2-oxa-6-azaspiro[3.4]octan-6-yl)-1H-pyrazolo[4,3-c]pyridin-6-amine] | 431 nM | 1.3 nM | 1.4 nM | 32.8 nM |  |
| CC(C)n1nc(NC2COC2)c2cnc(Nc3ccnc(-c4cnn(S(=O)(=O)C5CC5)c4)n3)cc21 [Example 35, N^6-(2-(1-(cyclopropylsulfonyl)-1H-pyrazol-4-yl)pyrimidin-4-yl)-1-isopropyl-N^3-(oxetan-3-yl)-1H-pyrazolo[4,3-c]pyridine-3,6-diamine] | 167 nM | 0.5 nM | 0.7 nM | 33.5 nM |  |
| CC(C)n1nc(N2CC(O)C2)c2cnc(Nc3ccnc(-c4cnn(S(=O)(=O)C5CC5)c4)n3)cc21 [Example 37, 1-(6-(2-(1-(cyclopropylsulfonyl)-1H-pyrazol-4-yl)pyrimidin-4-ylamino)-1-isopropyl-1H-pyrazolo[4,3-c]pyridin-3-yl)azetidin-3-ol] | 1120 nM | 0.8 nM | 1.4 nM | 91.7 nM |  |
| CC(C)n1nc(N2CC(O)C(F)(F)C2)c2cnc(Nc3ccnc(N4CCC(C)(O)CC4)n3)cc21 (centres unmarked) [Example 85, 1-(4-(3-(3,3-Difluoro-4-hydroxypyrrolidin-1-yl)-1-isopropyl-1H-pyrazolo[4,3-c]pyridin-6-ylamino)pyrimidin-2-yl)-4-methylpiperidin-4-ol] | 1330 nM | 15.5 nM | 5.5 nM | 308 nM |  |
| CC(C)n1nc(N2CC3(COC3)C2)c2cnc(Nc3ccnc(N4CC[C@](C)(O)[C@H](F)C4)n3)cc21 (racemic) [Example 64, (3RS,4SR)-3-Fluoro-1-{4-[1-isopropyl-3-(2-oxa-6-azaspiro[3,3]hept-6-yl)-1H-pyrazolo[4,3-c]pyridin-6-ylamino]pyrimidin-2-yl}-4-methylpiperidin-4-ol] | 701 nM | 16.1 nM | 3.6 nM | 223 nM |  |
| CC(C)n1nc(N2CC3(COC3)C2)c2cnc(Nc3ccnc(N4CCC(O)C(C)(C)C4)n3)cc21 (centres unmarked) [Example 3, 1-(4-((1-Isopropyl-3-(2-oxa-6-azaspiro[3.3]heptan-6-yl)-1H-pyrazolo[4,3-c]pyridin-6-yl)amino)pyrimidin-2-yl)-3,3-dimethylpiperidin-4-ol] | 159 nM | 1.6 nM | 1.4 nM | 38.6 nM |  |
| CC(C)n1nc(N2CCN(C)C2=O)c2cnc(Nc3ccnc(-c4cnn(S(=O)(=O)C5CC5)c4)n3)cc21 [Example 83, 1-(6-(2-(1-(Cyclopropylsulfonyl)-1H-pyrazol-4-yl)pyrimidin-4-ylamino)-1-isopropyl-1H-pyrazolo[4,3-c]pyridin-3-yl)-3-methylimidazolidin-2-one] | > 10000 nM | 1.2 nM | 1.3 nM | 21.6 nM |  |
| CC(C)n1nc(N2CC3(C2)C[S+]([O-])C3)c2cnc(Nc3ccnc(N4CCC(C)(O)CC4)n3)cc21 [Example 138, 6-(6-((2-(4-Hydroxy-4-methylpiperidin-1-yl)pyrimidin-4-yl)amino)-1-isopropyl-1H-pyrazolo[4,3-c]pyridin-3-yl)-2-thia-6-azaspiro[3.3]heptane 2-oxide] | 3910 nM | 19.6 nM | 4.6 nM | 1410 nM |  |
| CC(C)n1nc(N2CC(C)(CO)C2)c2cnc(Nc3ccnc(-c4cnn(S(=O)(=O)C5CC5)c4)n3)cc21 [Example 122, (1-(6-(2-(1-(Cyclopropylsulfonyl)-1H-pyrazol-4-yl)pyrimidin-4-ylamino)-1-isopropyl-1H-pyrazolo[4,3-c]pyridin-3-yl)-3-methylazetidin-3-yl)methanol] | 620 nM | 1 nM | 1.2 nM | 87.8 nM |  |
| CC(C)n1nc(N2CCC(C)(O)C2)c2cnc(Nc3ccnc(N4CC[C@@H](O)[C@@H](F)C4)n3)cc21 (relative stereo) [Example 104, (3S*,4R*)-3-fluoro-1-(4-((3-(3-hydroxy-3-methylpyrrolidin-1-yl)-1-isopropyl-1H-pyrazolo[4,3-c]pyridin-6-yl)amino)pyrimidin-2-yl)piperidin-4-ol] | 404 nM | 1.9 nM | 1.6 nM | 71.6 nM |  |
| CCC(C)n1nc(N2CCNC2=O)c2cnc(Nc3ccnc(OCC(C)(C)S(C)(=O)=O)n3)cc21 (racemic) [Example 99, 1-{1-sec-Butyl-6-[2-(2-methanesulfonyl-2-methylpropoxy)pyrimidin-4-ylamino]-1H-pyrazolo[4,3-c]pyridin-3-yl}imidazolidin-2-one] | 1170 nM | 5.6 nM | 3.2 nM | 617 nM |  |
| CC1CNC(=O)N1c1nn(C(C)C)c2cc(Nc3ccnc(N4CC[C@H](O)[C@H](F)C4)n3)ncc12 (relative stereo) [Example 128, 1-(6-(2-(cis-3-Fluoro-4-hydroxypiperidin-1-yl)pyrimidin-4-ylamino)-1-isopropyl-1H-pyrazolo[4,3-c]pyridin-3-yl)-5-methylimidazolidin-2-one] | 2040 nM | 15.5 nM | 6.2 nM | 919 nM |  |

Continued, values first:

| EC50 ([1]; Homo sapiens, NCI-H1975, 72 h) | Ki (EGFR del746-750 T790M) | Ki (EGFR T790M L858R) | EC50 [2] | EC50 [1] | Compound |
| --- | --- | --- | --- | --- | --- |
| 483 nM | 4.7 nM | 1.4 nM | 83.2 nM |  | CCC(C)n1nc(N2C[C@H](O)[C@@H](F)C2)c2cnc(Nc3ccnc(N4CCC(C)(O)CC4)n3)cc21 (relative stereo) [Example 178, 1-(4-(1-sec-Butyl-3-(trans-3-fluoro-4-hydroxypyrrolidin-1-yl)-1H-pyrazolo[4,3-c]pyridin-6-ylamino)pyrimidin-2-yl)-4-methylpiperidin-4-ol] |
| 7170 nM | 1.6 nM | 1.4 nM | 921 nM |  | CCC(C)n1nc(N2CC[C@@H](C(N)=O)C2)c2cnc(Nc3ccnc(N4CCC(C)(O)CC4)n3)cc21 (stereo partly drawn) [Example 145, (3R)-1-(1-sec-Butyl-6-(2-(4-hydroxy-4-methylpiperidin-1-yl)pyrimidin-4-ylamino)-1H-pyrazolo[4,3-c]pyridin-3-yl)pyrrolidine-3-carboxamide] |
| 193 nM | 1.9 nM | 1.9 nM | 95.6 nM |  | CC(C)n1nc(N2CC(C(=O)NCC(F)(F)F)C2)c2cnc(Nc3ccnc(-c4cnn(S(=O)(=O)C5CC5)c4)n3)cc21 [Example 165, 1-(6-(2-(1-(Cyclopropylsulfonyl)-1H-pyrazol-4-yl)pyrimidin-4-ylamino)-1-isopropyl-1H-pyrazolo[4,3-c]pyridin-3-yl)-N-(2,2,2-trifluoroethyl)azetidine-3-carboxamide] |
| 1380 nM | 1.9 nM | 2.1 nM | 133 nM |  | CC(C)n1nc(N2CC(C(C)(C)C#N)C2)c2cnc(Nc3ccnc(-c4cnn(S(=O)(=O)C5CC5)c4)n3)cc21 [Example 153, 2-(1-(6-(2-(1-(Cyclopropylsulfonyl)-1H-pyrazol-4-yl)pyrimidin-4-ylamino)-1-isopropyl-1H-pyrazolo[4,3-c]pyridin-3-yl)azetidin-3-yl)-2-methylpropanenitrile] |
|  | 3.1 nM | 1.5 nM | 16.4 nM | 348 nM | CCC(C)n1nc(N2CC3(COC3)C2)c2cnc(Nc3ccnc(N4CC[C@@H](O)[C@@H](F)C4)n3)cc21 (single isomer, unassigned) [Example 198, (3S,4R)-1-(4-((1-((S*)-sec-Butyl)-3-(2-oxa-6-azaspiro[3.3]heptan-6-yl)-1H-pyrazolo[4,3-c]pyridin-6-yl)amino)pyrimidin-2-yl)-3-fluoropiperidin-4-ol] |
| 1600 nM | 4.9 nM | 2.5 nM | 277 nM |  | CCC(C)n1nc(N2CC(F)(F)C2)c2cnc(Nc3ccnc(N4CCC(C)(O)CC4)n3)cc21 (centres unmarked) [Example 146, 1-(4-(1-sec-Butyl-3-(3,3-difluoroazetidin-1-yl)-1H-pyrazolo[4,3-c]pyridin-6-ylamino)pyrimidin-2-yl)-4-methylpiperidin-4-ol] |
